# Assay results as given in patent US7572786B2, “Substituted 1-piperidin-3-yl-4-piperidin-4-yl-piperazine derivatives and their use as neurokinin antagonists” (Janssen Pharmaceutica, N.V., priority 2002, dated 2009).
# How the values were obtained:
# Format in all cases: cell-based
# NK3 = molecular target: T1, NK3 (Homo sapiens, UniProt P29371); assay: Signal transduction (ST), intracellular Ca++ (FLIPR), NK3; settings: for IC50: read-out: pIC50 NK3 (converted)
# T1 sequence (P29371 1-465): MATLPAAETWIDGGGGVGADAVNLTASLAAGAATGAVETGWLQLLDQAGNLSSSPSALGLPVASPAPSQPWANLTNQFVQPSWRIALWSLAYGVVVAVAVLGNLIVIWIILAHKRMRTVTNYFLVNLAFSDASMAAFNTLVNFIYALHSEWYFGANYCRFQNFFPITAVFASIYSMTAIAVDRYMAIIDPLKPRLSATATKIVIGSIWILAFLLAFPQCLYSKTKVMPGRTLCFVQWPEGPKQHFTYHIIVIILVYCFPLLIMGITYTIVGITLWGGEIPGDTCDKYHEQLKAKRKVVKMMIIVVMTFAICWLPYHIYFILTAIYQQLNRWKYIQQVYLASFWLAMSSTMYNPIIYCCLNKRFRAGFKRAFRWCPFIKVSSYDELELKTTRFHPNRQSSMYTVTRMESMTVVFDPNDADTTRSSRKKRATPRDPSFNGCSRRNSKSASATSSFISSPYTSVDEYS
# NK1 = NK1 (Homo sapiens, UniProt P25103); assay: Signal transduction (ST), intracellular Ca++ (FLIPR), NK1 antagonism; settings: for IC50: read-out: pIC50 NK1 (converted)
# Method in brief: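 Confluent cells were loaded with 2 μM Fluo3 with probenecid for 1 h at 37°C, then preincubated with antagonist concentration ranges for 20 min at RT before agonist addition. Peak FLIPR calcium transient was taken as signal; IC50 from non-linear regression of sigmoidal curves.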
# NK2 = molecular target: T2, NK2 (Homo sapiens, UniProt P21452); assay: Signal transduction (ST), intracellular Ca++ (FLIPR), NK2; settings: for IC50: read-out: pIC50 NK2 (converted)
# T2 sequence (P21452 1-398): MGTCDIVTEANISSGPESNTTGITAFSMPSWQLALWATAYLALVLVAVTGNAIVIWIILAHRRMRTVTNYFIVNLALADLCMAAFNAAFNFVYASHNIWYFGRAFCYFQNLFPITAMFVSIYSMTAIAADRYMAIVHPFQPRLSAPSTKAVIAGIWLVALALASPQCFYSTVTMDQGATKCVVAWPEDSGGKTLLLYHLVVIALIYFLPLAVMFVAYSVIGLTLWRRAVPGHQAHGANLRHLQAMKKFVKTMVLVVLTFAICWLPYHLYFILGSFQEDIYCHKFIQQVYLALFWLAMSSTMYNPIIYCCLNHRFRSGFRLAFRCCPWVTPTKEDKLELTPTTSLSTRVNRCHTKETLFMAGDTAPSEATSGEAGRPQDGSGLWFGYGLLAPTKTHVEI
# Description: [The source words this procedure for another target and reports this target under the same test.] This test evaluates in vitro functional NK1 antagonistic activity. For the measurements of intracellular Ca^++ concentrations the cells were grown on 96-well (black wall/transparent bottom) plates from Costar for 2 days until they reached confluence. The cells were loaded with 2 μM Fluo3 in DMEM containing 0.1% BSA and 2.5 mM probenecid for 1 h at 37° C. […] The cells were preincubated with a concentration range of antagonists for 20 min at RT and Ca^++-signals after addition of the agonists were measured in a Fluorescence Image Plate Reader (FLIPR from Molecular Devices, Crawley, England). The peak of the Ca^++-transient was considered as the relevant signal and the mean values of corresponding wells were analysed as described below.
# The sigmoidal dose response curves were analysed by computerised curve-fitting, using the GraphPad Program. […] For antagonist responses the IC50-value was calculated using non-linear regression.
# Chain of NK1 (P25103 whole entry): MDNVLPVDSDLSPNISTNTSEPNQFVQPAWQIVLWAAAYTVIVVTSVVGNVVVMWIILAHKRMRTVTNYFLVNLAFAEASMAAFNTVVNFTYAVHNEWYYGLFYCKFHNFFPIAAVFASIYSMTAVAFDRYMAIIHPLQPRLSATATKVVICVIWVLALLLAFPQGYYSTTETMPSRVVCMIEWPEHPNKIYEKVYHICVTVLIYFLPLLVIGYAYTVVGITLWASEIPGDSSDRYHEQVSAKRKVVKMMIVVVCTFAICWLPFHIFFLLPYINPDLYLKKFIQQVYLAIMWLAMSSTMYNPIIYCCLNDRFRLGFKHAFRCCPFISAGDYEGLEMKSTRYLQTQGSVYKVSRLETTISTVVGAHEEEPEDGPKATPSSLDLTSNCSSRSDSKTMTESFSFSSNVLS
SMILES,IC50 (NK3),IC50 (NK1),IC50 (NK2),pIC50 NK3 (NK3),pIC50 NK1 (NK1),pIC50 NK2 (NK2)
Cc1nc(S(=O)(=O)N2CCCC(N3CCN([C@H]4CCN(C(=O)c5cc(C(F)(F)F)cc(C(F)(F)F)c5)[C@H](Cc5ccccc5)C4)CC3)C2)cn1C (stereo partly drawn) [Compound 32],100 nM,5.01 nM,631 nM,–,–,–
O=C(c1cc(C(F)(F)F)cc(C(F)(F)F)c1)N1CC[C@H](N2CCN(C3CCCN(S(=O)(=O)c4ccsc4)C3)CC2)C[C@H]1Cc1ccccc1 (stereo partly drawn) [Compound 29],316 nM,6.31 nM,1260 nM,–,–,–
O=C(c1cc(C(F)(F)F)cc(C(F)(F)F)c1)N1CC[C@H](N2CCN(C3CCCN(S(=O)(=O)c4cccs4)C3)CC2)C[C@H]1Cc1ccccc1 (stereo partly drawn) [Compound 25],–,–,–,7.1,7.8,6.4
CC(C)(C)OC(=O)N1CCCC1C(=O)N1CCCC(N2CCN(C3CCN(C(=O)c4cc(C(F)(F)F)cc(C(F)(F)F)c4)C(Cc4ccccc4)C3)CC2)C1 (stereo not drawn) [Compound 54],251 nM,5.01 nM,2000 nM,–,–,–
O=C(c1cccnc1)N1CCCC(N2CCN([C@H]3CCN(C(=O)c4cc(C(F)(F)F)cc(C(F)(F)F)c4)[C@H](Cc4ccccc4)C3)CC2)C1 (stereo partly drawn) [Compound 23],2000 nM,20 nM,3980 nM,–,–,–
Cc1nnsc1C(=O)N1CCCC(N2CCN([C@H]3CCN(C(=O)c4cc(C(F)(F)F)cc(C(F)(F)F)c4)[C@H](Cc4ccccc4)C3)CC2)C1 (stereo partly drawn) [Compound 22],501 nM,10 nM,2510 nM,–,–,–
O=C(C1CCCC1)N1CCCC(N2CCN(C3CCN(C(=O)c4cc(C(F)(F)F)cc(C(F)(F)F)c4)C(Cc4ccccc4)C3)CC2)C1 (stereo not drawn) [Compound 41],100 nM,7.94 nM,3160 nM,–,–,–
O=C(c1cc(C(F)(F)F)cc(C(F)(F)F)c1)N1CC[C@H](N2CCN(C3CCCN(S(=O)(=O)c4cc(Cl)sc4Cl)C3)CC2)C[C@H]1Cc1ccccc1 (stereo partly drawn) [Compound 40],–,–,–,6.6,7.6,5.1
COc1ccccc1S(=O)(=O)N1CCCC(N2CCN([C@H]3CCN(C(=O)c4cc(C(F)(F)F)cc(C(F)(F)F)c4)[C@H](Cc4ccccc4)C3)CC2)C1 (stereo partly drawn) [Compound 68],–,–,–,5.8,8.0,5.8
Cc1ccccc1C(=O)N1CCCC(N2CCN([C@H]3CCN(C(=O)c4cc(C(F)(F)F)cc(C(F)(F)F)c4)[C@H](Cc4ccccc4)C3)CC2)C1 (stereo partly drawn) [Compound 11],1000 nM,20 nM,3160 nM,–,–,–

# Continued, in another order:
IC50 (NK3),IC50 (NK1),IC50 (NK2),SMILES,pIC50 NK3 (NK3),pIC50 NK1 (NK1),pIC50 NK2 (NK2)
7940 nM,316 nM,794 nM,O=C(c1cc(C(F)(F)F)cc(C(F)(F)F)c1)N1CC[C@H](N2CCN(C3CCCN(S(=O)(=O)c4ccc(COCc5ccccc5)s4)C3)CC2)C[C@H]1Cc1ccccc1 (stereo partly drawn) [Compound 87],–,–,–
2000 nM,15.8 nM,3160 nM,O=C(c1cc(C(F)(F)F)cc(C(F)(F)F)c1)N1CCC(N2CCN(C3CCCN(S(=O)(=O)c4cccs4)C3)CC2)CC1Cc1ccccc1 (stereo not drawn) [Compound 59],–,–,–
316 nM,3.98 nM,794 nM,O=C(c1cc(C(F)(F)F)cc(C(F)(F)F)c1)N1CCC(N2CCN(C3CCCN(S(=O)(=O)c4ccc(O)cc4)C3)CC2)CC1Cc1ccccc1 (stereo not drawn) [Compound 78],–,–,–
6310 nM,10 nM,1580 nM,O=C(Nc1ccccc1F)N1CCCC(N2CCN([C@H]3CCN(C(=O)c4cc(C(F)(F)F)cc(C(F)(F)F)c4)[C@H](Cc4ccccc4)C3)CC2)C1 (stereo partly drawn) [Compound 65],–,–,–
6310 nM,5.01 nM,3160 nM,Cn1cnc(C(=O)N2CCCC(N3CCN([C@H]4CCN(C(=O)c5cc(C(F)(F)F)cc(C(F)(F)F)c5)[C@H](Cc5ccccc5)C4)CC3)C2)c1 (stereo partly drawn) [Compound 63],–,–,–
5010 nM,79.4 nM,3980 nM,O=C(c1cc(COCc2ccccc2)cs1)N1CCCC(N2CCN([C@H]3CCN(C(=O)c4cc(C(F)(F)F)cc(C(F)(F)F)c4)[C@H](Cc4ccccc4)C3)CC2)C1 (stereo partly drawn) [Compound 85],–,–,–
3160 nM,10 nM,3980 nM,N#Cc1ccc(C(=O)N2CCCC(N3CCN([C@H]4CCN(C(=O)c5cc(C(F)(F)F)cc(C(F)(F)F)c5)[C@H](Cc5ccccc5)C4)CC3)C2)cc1 (stereo partly drawn) [Compound 62],–,–,–
7940 nM,63.1 nM,5010 nM,O=C(c1cc(C(F)(F)F)cc(C(F)(F)F)c1)N1CC[C@H](N2CCN(C3CCCN(C(CO)c4ccccc4Cl)C3)CC2)C[C@H]1Cc1ccccc1 (stereo partly drawn) [Compound 89],–,–,–
2000 nM,7.94 nM,1000 nM,O=C(C(O)c1ccccc1)N1CCCC(N2CCN([C@H]3CCN(C(=O)c4cc(C(F)(F)F)cc(C(F)(F)F)c4)[C@H](Cc4ccccc4)C3)CC2)C1 (stereo partly drawn) [Compound 56],–,–,–
1000 nM,20 nM,3980 nM,COc1ccc(NC(=NC#N)N2CCCC(N3CCN([C@H]4CCN(C(=O)c5cc(C(F)(F)F)cc(C(F)(F)F)c5)[C@H](Cc5ccccc5)C4)CC3)C2)cc1 (stereo partly drawn) [Compound 94],–,–,–
501 nM,10 nM,794 nM,O=C(c1cc(C(F)(F)F)cc(C(F)(F)F)c1)N1CC[C@H](N2CCN(C3CCCN(S(=O)(=O)c4cccc(O)c4)C3)CC2)C[C@H]1Cc1ccccc1 (stereo partly drawn) [Compound 80],–,–,–
1580 nM,20 nM,2000 nM,O=C(c1cc(C(F)(F)F)cc(C(F)(F)F)c1)N1CC[C@H](N2CCN(C3CCCN(C(CO)c4ccsc4)C3)CC2)C[C@H]1Cc1ccccc1 (stereo partly drawn) [Compound 76],–,–,–
